In patent US11130769B2 (Prelude Therapeutics Incorporated, priority 2018, dated 2021) one finds IC50 and Ki data, which are given here for 16 molecules.

As a reminder, the IC50 is the concentration at which inhibition is half-maximal.

A value given as a limit tells only on which side of the number the result lay.

The subject of one test is H929 cells. Description: Cell viability assay (H929 10 FBS). Format: cell-based. The conditions noted are these: Homo sapiens, NCI-H929, 24 hours, read-out: H929_10FBS IC50. The essentials: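 H929 cells, 4000/well, in RPMI 1640 with 10% FBS, sodium pyruvate, HEPES and glucose were exposed to compound 24 h at 37 °C. Viability read as luminescence after 30-60 min at RT with CellTiter-Glo or ATPlite 1 Step.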

Another test addresses MCL-1 (Homo sapiens (Human), UniProt Q07820). Description: Cell free Mcl-1:Bim affinity assay (fluorescence polarization competition). Format: binding. The conditions noted are these: 15 nM MCL-1, 5 nM FITC-Bim, 1 hour at room temperature; class symbols; read-out: BIM_Ki. Put shortly:
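Compounds competed with FITC-labelled Bim peptide (5 nM) for MCL-1 (15 nM) in HEPES/NaCl buffer with 1% DMSO, 1 h at room temperature. Fluorescence polarization (535 nm emission) gave % inhibition versus DMSO and positive controls; IC50 from 10-point curves, converted to Ki by the Nikolovska-Coleska equation.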
(Polarisation of emitted light reports the rotation of a fluorescent probe.)

MCL-1, sequence (Q07820 whole entry): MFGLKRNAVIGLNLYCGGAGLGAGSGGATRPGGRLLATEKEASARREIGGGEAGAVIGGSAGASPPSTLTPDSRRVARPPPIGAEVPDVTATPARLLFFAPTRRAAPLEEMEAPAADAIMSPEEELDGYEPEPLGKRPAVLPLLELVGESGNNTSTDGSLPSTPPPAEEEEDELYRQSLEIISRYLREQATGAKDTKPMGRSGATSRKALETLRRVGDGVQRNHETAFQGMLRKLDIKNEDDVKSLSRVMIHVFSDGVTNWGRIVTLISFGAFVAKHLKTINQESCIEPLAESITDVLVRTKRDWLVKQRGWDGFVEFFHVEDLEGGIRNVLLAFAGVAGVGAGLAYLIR

As for `CN1C/C=C/[C@H](O)[C@@H]2CC[C@H]2CN2C[C@@]3(CCCc4cc(Cl)ccc43)COc3ccc(cc32)S(=O)(=O)NC(=O)C1(C)C` [Example 43, (3R,6R,7S,8E,22S)-6′-Chloro-7-hydroxy-11,12,12-trimethyl-15,15-dioxo-spiro[20-oxa-15-thia-1,11,14-triazatetracyclo[14.7.2.03,6.019,24]pentacosa-8,16,18,24-tetraene-22,1′-tetralin]-13-one], the IC50 with H929 cells is above 1000 nM. The Ki at MCL-1 was in the range of 1 to 100 nM.

Regarding `CN(C)C(=O)O[C@H]1/C=C/CN(C)C(C)(C)C(=O)NS(=O)(=O)c2ccc3c(c2)N(C[C@@H]2CC[C@H]21)C[C@@]1(CCCc2cc(Cl)ccc21)CO3` [Example 44, [(3R,6R,7S,8E,22S)-6′-chloro-11,12,12-trimethyl-13,15,15-trioxo-spiro[20-oxa-15-thia-1,11,14-triazatetracyclo[14.7.2.03,6.019,24]pentacosa-8,16,18,24-tetraene-22,1′-tetralin]-7-yl] N,N-dimethylcarbamate], in the test with H929 cells, the IC50 was below 500 nM. Further, the Ki on MCL-1 is below 1 nM.

For the molecule `[2H]C([2H])([2H])N1C/C=C/[C@H](OC(=O)N(C)C)[C@@H]2CC[C@H]2CN2C[C@@]3(CCCc4cc(Cl)ccc43)COc3ccc(cc32)S(=O)(=O)NC(=O)C1(C)C` [Example 45, [(3R,6R,7S,8E,22S)-6′-Chloro-12,12-dimethyl-13,15,15-trioxo-11-(trideuteriomethyl)spiro[20-oxa-15-thia-1,11,14-triazatetracyclo[14.7.2.03,6.019,24]pentacosa-8,16,18,24-tetraene-22,1′-tetralin]-7-yl] N,N-dimethylcarbamate], the IC50 in the test with H929 cells is below 500 nM. For the same molecule, the Ki at MCL-1 was below 1 nM.

As for `COCCN1CCN(C(=O)O[C@H]2/C=C/COC(C)(C)C(=O)NS(=O)(=O)c3ccc4c(c3)N(C[C@@H]3CC[C@H]32)C[C@@]2(CCCc3cc(Cl)ccc32)CO4)CC1` [Example 46, [(3R,6R,7S,8E,22S)-6′-Chloro-12,12-dimethyl-13,15,15-trioxo-spiro[11,20-dioxa-15-thia-1,14-diazatetracyclo[14.7.2.03,6.019,24]pentacosa-8,16,18,24-tetraene-22,1′-tetralin]-7-yl] 4-(2-methoxyethyl)piperazine-1-carboxylate], the IC50 in the test on H929 cells is below 500 nM. Further, the Ki at MCL-1 is below 1 nM.

In the case of `[2H]C([2H])([2H])N(C(=O)O[C@H]1/C=C/COC(C)(C)C(=O)NS(=O)(=O)c2ccc3c(c2)N(C[C@@H]2CC[C@H]21)C[C@@]1(CCCc2cc(Cl)ccc21)CO3)C([2H])([2H])[2H]` [Example 47, [(3R,6R,7S,8E,22S)-6′-Chloro-12,12-dimethyl-13,15,15-trioxo-spiro[11,20-dioxa-thia-1,14-diazatetracyclo[14.7.2.03,6.019,24]pentacosa-8,16,18,24-tetraene-22,1′-tetralin]-7-yl] N,N-bis(trideuteriomethyl)carbamate], the IC50 with H929 cells is below 500 nM. For the same molecule, on MCL-1, the Ki is below 1 nM.

Turning to `CN(C)C(=O)O[C@H]1/C=C/CN(C)C2(CCC2)C(=O)NS(=O)(=O)c2ccc3c(c2)N(C[C@@H]2CC[C@H]21)C[C@@]1(CCCc2cc(Cl)ccc21)CO3` [Example 48, [(3R,6R,7R,8E,22S)-6′-Chloro-11-methyl-12,12-(1,3-propylene)-13,15,15-trioxo-spiro[20-oxa-15-thia-1,11,14-triazatetracyclo[14.7.2.03,6.019,24]pentacosa-8,16,18,24-tetraene-22,1′-tetralin]-7-yl] N,N-dimethylcarbamate], in the test on H929 cells, the IC50 is below 500 nM. For the same molecule, the Ki on MCL-1 was below 1 nM.

As for `CC1(C)OC/C=C/[C@H](OC(=O)N2CC(F)(F)C2)[C@@H]2CC[C@H]2CN2C[C@@]3(CCCc4cc(Cl)ccc43)COc3ccc(cc32)S(=O)(=O)NC1=O` [Example 49, [(3R,6R,7S,8E,22S)-6′-Chloro-12,12-dimethyl-13,15,15-trioxo-spiro[11,20-dioxa-15-thia-1,14-diazatetracyclo[14.7.2.03,6.019,24]pentacosa-8,16,18,24-tetraene-22,1′-tetralin]-7-yl] 3,3-difluoroazetidine-1-carboxylate], the concentration for half-maximal inhibition (IC50) in the test on H929 cells was below 500 nM. Also, on MCL-1, the Ki is below 1 nM.

`CNC(=O)O[C@H]1/C=C/COC(C)(C)C(=O)NS(=O)(=O)c2ccc3c(c2)N(C[C@@H]2CC[C@H]21)C[C@@]1(CCCc2cc(Cl)ccc21)CO3` [Example 50, [(3R,6R,7S,8E,22S)-6′-Chloro-12,12-dimethyl-13,15,15-trioxo-spiro[11,20-dioxa-15-thia-1,14-diazatetracyclo[14.7.2.03,6.019,24]pentacosa-8,16,18,24-tetraene-22,1′-tetralin]-7-yl] N-methylcarbamate]: the IC50 in the test with H929 cells was below 500 nM. For the same molecule, on MCL-1, the Ki was below 1 nM.

As for `COC1CCN(C(=O)O[C@H]2/C=C/COC(C)(C)C(=O)NS(=O)(=O)c3ccc4c(c3)N(C[C@@H]3CC[C@H]32)C[C@@]2(CCCc3cc(Cl)ccc32)CO4)CC1` [Example 51, [(3R,6R,7S,8E,22S)-6′-Chloro-12,12-dimethyl-13,15,15-trioxo-spiro[11,20-dioxa-15-thia-1,14-diazatetracyclo[14.7.2.03,6.019,24]pentacosa-8,16,18,24-tetraene-22,1′-tetralin]-7-yl] 4-methoxypiperidine-1-carboxylate], in the test with H929 cells, the IC50 is below 500 nM. The Ki on MCL-1 was below 1 nM.

Consider `CN(C)C1CN(C(=O)O[C@H]2/C=C/COC(C)(C)C(=O)NS(=O)(=O)c3ccc4c(c3)N(C[C@@H]3CC[C@H]32)C[C@@]2(CCCc3cc(Cl)ccc32)CO4)C1` [Example 52, [(3R,6R,7S,8E,22S)-6′-Chloro-12,12-dimethyl-13,15,15-trioxo-spiro[11,20-dioxa-15-thia-1,14-diazatetracyclo[14.7.2.03,6.019,24]pentacosa-8,16,18,24-tetraene-22,1′-tetralin]-7-yl] 3-(dimethylamino)azetidine-1-carboxylate], for which the IC50 with H929 cells was below 500 nM. For the same molecule, the Ki on MCL-1 was below 1 nM.

On to `CN(C)[C@@H]1CCN(C(=O)O[C@H]2/C=C/COC(C)(C)C(=O)NS(=O)(=O)c3ccc4c(c3)N(C[C@@H]3CC[C@H]32)C[C@@]2(CCCc3cc(Cl)ccc32)CO4)C1` [Example 53, [(3R,6R,7S,8E,22S)-6′-Chloro-12,12-dimethyl-13,15,15-trioxo-spiro[11,20-dioxa-15-thia-1,14-diazatetracyclo[14.7.2.03,6.019,24]pentacosa-8,16,18,24-tetraene-22,1′-tetralin]-7-yl] (3R)-3-(dimethylamino)pyrrolidine-1-carboxylate], for which the IC50 in the test with H929 cells was below 500 nM. For the same molecule, at MCL-1, the Ki was below 1 nM.

As for `CN1CCCN(C(=O)O[C@H]2/C=C/COC(C)(C)C(=O)NS(=O)(=O)c3ccc4c(c3)N(C[C@@H]3CC[C@H]32)C[C@@]2(CCCc3cc(Cl)ccc32)CO4)CC1` [Example 54, [(3R,6R,7S,8E,22S)-6′-Chloro-12,12-dimethyl-13,15,15-trioxo-spiro[11,20-dioxa-15-thia-1,14-diazatetracyclo[14.7.2.03,6.019,24]pentacosa-8,16,18,24-tetraene-22,1′-tetralin]-7-yl] 4-methyl-1,4-diazepane-1-carboxylate], the IC50 in the test on H929 cells was below 500 nM. Further, at MCL-1, the Ki was below 1 nM.

Regarding `CN(C)CCN(C)C(=O)O[C@H]1/C=C/COC(C)(C)C(=O)NS(=O)(=O)c2ccc3c(c2)N(C[C@@H]2CC[C@H]21)C[C@@]1(CCCc2cc(Cl)ccc21)CO3` [Example 55, [(3R,6R,7S,8E,22S)-6′-Chloro-12,12-dimethyl-13,15,15-trioxo-spiro[11,20-dioxa-15-thia-1,14-diazatetracyclo[14.7.2.0˜3,6.0˜19,24]pentacosa-8,16,18,24-tetraene-22,1′-tetralin]-7-yl] N-[2-(dimethylamino)ethyl]-N-methyl-carbamate], the IC50 in the test with H929 cells is below 500 nM. For the same molecule, at MCL-1, the Ki was below 1 nM.

Consider `COC1CN(C(=O)O[C@H]2/C=C/COC(C)(C)C(=O)NS(=O)(=O)c3ccc4c(c3)N(C[C@@H]3CC[C@H]32)C[C@@]2(CCCc3cc(Cl)ccc32)CO4)C1` [Example 56, [(3R,6R,7S,8E,22S)-6′-Chloro-12,12-dimethyl-13,15,15-trioxo-spiro[11,20-dioxa-15-thia-1,14-diazatetracyclo[14.7.2.03,6.019,24]pentacosa-8,16,18,24-tetraene-22,1′-tetralin]-7-yl] 3-methoxyazetidine-1-carboxylate], for which, in the test on H929 cells, the IC50 is below 500 nM. Besides, the Ki on MCL-1 is below 1 nM.

As for `CCOC1CN(C(=O)O[C@H]2/C=C/COC(C)(C)C(=O)NS(=O)(=O)c3ccc4c(c3)N(C[C@@H]3CC[C@H]32)C[C@@]2(CCCc3cc(Cl)ccc32)CO4)C1` [Example 57, [(3R,6R,7S,8E,22S)-6′-Chloro-12,12-dimethyl-13,15,15-trioxo-spiro[11,20-dioxa-15-thia-1,14-diazatetracyclo[14.7.2.03,6.019,24]pentacosa-8,16,18,24-tetraene-22,1′-tetralin]-7-yl] 3-ethoxyazetidine-1-carboxylate], the IC50 in the test on H929 cells is below 500 nM. The Ki on MCL-1 is below 1 nM.

Take `CO[C@@H]1CCN(C(=O)O[C@H]2/C=C/COC(C)(C)C(=O)NS(=O)(=O)c3ccc4c(c3)N(C[C@@H]3CC[C@H]32)C[C@@]2(CCCc3cc(Cl)ccc32)CO4)C1` [Example 58, [(3R,6R,7S,8E,22S)-6′-Chloro-12,12-dimethyl-13,15,15-trioxo-spiro[11,20-dioxa-15-thia-1,14-diazatetracyclo[14.7.2.03,6.019,24]pentacosa-8,16,18,24-tetraene-22,1′-tetralin]-7-yl] (3R)-3-methoxypyrrolidine-1-carboxylate]: the IC50 in the test with H929 cells was below 500 nM. For the same molecule, on MCL-1, the Ki is below 1 nM.
